Data published in paper PMC9403717, “Ruthenium complexes show potent inhibition of AKR1C1, AKR1C2, and AKR1C3 enzymes and anti-proliferative action against chemoresistant ovarian cancer cell line” (Frontiers in Pharmacology, 2022).
Changes are numbered by the printed parent chain. Where two headings read alike, the source gives them in different places.

Experiments:
COV362 cells [1] = assay: Cell proliferation assay (alamarBlue), chemoresistant ovarian cancer cell line COV362; type: cell-based, human; settings: for IC50: 48 h incubation
Procedure: (§1) The cell line COV362 (CVCL_2,420) was originally established from a high-grade ovarian serous adenocarcinoma from a metastatic site in the pleural effusion ([van den Berg-Bakker et al., 1993]) and was purchased from ECACC (ECACC 07071910) as p37 on 13 October 2017. The growth medium for COV362 cells was DMEM (D5546; Sigma–Aldrich GmbH), with 10% FBS (F9665; Sigma–Aldrich GmbH) and 2 mM L-glutamine (G7513; Sigma–Aldrich GmbH). COV362 cells in passages p37 + 12 to p37 + 17 were used in this study and seeded at a concentration of 3.5 cells/ml × 10^4 cells/ml for proliferation studies and at a concentration of 5.3 × 10^5/ml for migration studies. The cell line OVCAR-4 (CVCL_1,627) is a high-grade serous ovarian adenocarcinoma cell line established from a patient refractory to cisplatin ([Johnson et al., 1997]). The cell line was purchased from Merck on 19 March 2021. The growth medium for OVCAR-4 cells was RPMI-1640 (Sigma R5586) supplemented with 2 mM glutamine (G7513; Sigma–Aldrich GmbH), 10% FBS (F9665; Sigma–Aldrich GmbH), 0.25 μg/ml insulin (I9278; Sigma–Aldrich GmbH). OVCAR-4 cells in passages p+6 to p+15 were used in this study and seeded at a concentration of 6 cells/ml × 10^4 cells/ml. The control cell line HIO80 (CVCL_E274) was obtained from Andrew K. Godwin (University of Kansas Medical Center, Kansas, United States) on 20 October 2017 as p+72. It was originally established from ovarian surface epithelium ([Yang et al., 2004]). HIO80 cells were grown in RPMI medium (R5886, Sigma–Aldrich GmbH) supplemented with 10% FBS (F9665; Sigma–Aldrich GmbH), 2 mm L-glutamine (G7513; Sigma–Aldrich GmbH) and 6.6 µg/ml insulin (I9278; Sigma–Aldrich GmbH). HIO80 cells in passages p72 + 8 to p72 + 19 were used in this study and seeded at a concentration of 2 × 10^4 cells/mL. HIO80 in passage +10 was authenticated by short tandem repeats (STR) profiling performed by ATCC on 22 February 2019. Cells were grown in a humidified atmosphere containing 5% CO2 at 37°C. All cell lines were negative for mycoplasma infection which was periodically tested using MycoAlert^TM mycoplasma detection kit (Lonza, Basel, Switzerland).
(§2) The effect of ruthenium compounds on the proliferation of ovarian cancer cell lines COV362 and OVCAR-4 and the control cell line HIO80 was analyzed using the cell proliferation reagent alamarBlue HS (A50101; Thermo Fisher Scientific) following the manufacturer’s instructions.
(§3) Cells were seeded in 96-well plates in 100 µL of medium and allowed to adhere and grow for 24 h. […] Cisplatin and carboplatin purchased from Sigma–Aldrich GmbH (cat. number: PHR1624, lot: LRAB7778) and (cat. number: C2538, lot: MKCK1243) were dissolved in sterile water. Working solutions were prepared by a serial dilution of stock solutions with a culture medium. After the initial incubation, cells were treated with ruthenium complexes, cisplatin, and carboplatin. A range of final concentrations between 0.001 and 300 µM were used for ruthenium complexes and cisplatin, and between 0.001 µM and 1 mM for carboplatin. After 48 h of incubation, plates were incubated with 20 µL of alamarBlue. After 4 h absorbance was measured with a BioTek microplate spectrophotometer at 570 nm, with the reference wavelength set at 600 nm. First, the background value of a well containing the active substance without cells was subtracted, then the average values for duplicates/triplicates were calculated. The absorbance of the well containing only untreated cells was used as a normalization control. The half-maximal […] concentration (IC50) was determined for all ruthenium complexes with a growth-inhibiting effect on cells by constructing a dose-response curve (Graph Pad Prism, Version 8.0).

AKR1C3 [2] = target: T1, AKR1C3 (Homo sapiens, UniProt P42330); design: method as in Qiu et al., 2007; settings: ref Qiu et al., 2007; cited from earlier work
T1 construct: made in house
T1 sequence (P42330 1-323): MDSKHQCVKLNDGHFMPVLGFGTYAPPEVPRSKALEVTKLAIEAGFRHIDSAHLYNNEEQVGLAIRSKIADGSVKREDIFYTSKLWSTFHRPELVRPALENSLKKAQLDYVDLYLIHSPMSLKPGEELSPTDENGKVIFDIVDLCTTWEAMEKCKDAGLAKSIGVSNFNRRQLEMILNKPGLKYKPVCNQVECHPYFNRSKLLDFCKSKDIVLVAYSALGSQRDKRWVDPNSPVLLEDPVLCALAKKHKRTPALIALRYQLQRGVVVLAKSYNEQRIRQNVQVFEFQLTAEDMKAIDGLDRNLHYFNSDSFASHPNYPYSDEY

MCF-7 = settings: ref Kljun et al., 2016; cited from earlier work
AKR1C1 = target: T2, AKR1C1 (Homo sapiens, UniProt Q04828); assay: Inhibition of recombinant AKR1C1, oxidation of 1-acenaphthenol, progress-curve analysis; type: biochemical
T2 construct: made in house
T2 sequence (Q04828 1-323): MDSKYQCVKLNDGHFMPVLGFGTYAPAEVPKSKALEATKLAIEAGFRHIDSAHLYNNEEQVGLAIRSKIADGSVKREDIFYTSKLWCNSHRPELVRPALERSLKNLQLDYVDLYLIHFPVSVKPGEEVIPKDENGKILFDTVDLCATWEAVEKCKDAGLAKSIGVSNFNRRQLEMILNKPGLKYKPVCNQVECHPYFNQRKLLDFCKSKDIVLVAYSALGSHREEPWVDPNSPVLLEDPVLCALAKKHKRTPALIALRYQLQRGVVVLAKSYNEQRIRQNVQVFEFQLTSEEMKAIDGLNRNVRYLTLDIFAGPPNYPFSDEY
Procedure: (§4) To investigate the effect of ten selected ruthenium compounds, we measured their effect on the time course of oxidation of the artificial substrate 1-acenaphtenol by recombinant enzymes AKR1C1–3. The recombinant enzymes AKR1C1–AKR1C3 were prepared as described previously ([Brozic et al., 2006]). Since the artificial substrate is racemic, the oxidation follows a double exponential pattern as described previously ([Traven et al., 2015]). The in vitro catalytic activity of AKR1C1–3 enzymes was determined spectrophotometrically by monitoring the increase in NADH absorbance at 340 nm (ε(λ340) = 6220 M^−1cm^−1) in the presence of the substrate 1-acenaphthenol. Enzymatic reactions (300 µL) were performed in 100 mm potassium phosphate buffer (pH 9.0), 0.005% (v/v) TritonX-114, 5% (v/v) DMSO, containing 2.3 mm NAD^+ and 1-acenaphthenol at final concentrations of 90, 180, and 250 µM for AKR1C1, AKR1C2, and AKR1C3, respectively. A total of 5 µL of a tested compound in DMSO was added to the reaction mixture. The final concentrations of the tested compounds ranged from 1 to 200 μM, depending on the extent of inhibition (Supplementary Data). The reaction was started by adding 15 µL of AKR1C1, AKR1C2, or AKR1C3 dissolved in 1x PBS (pH 7.3) at final concentrations of 0.11, 0.16, and 1.5 µM, respectively. AKR1C1–3 activity was measured at 37°C for 3 h without shaking using a PowerWave XS microplate reader (Biotek; Winooski, VT, United States). Measurements at seven different concentrations were performed in duplicates or triplicates (Supplementary Figures S2). To mechanistically explain all the obtained progress curves for each ruthenium complex on each enzyme by a common reaction scheme, we extended the originally proposed scheme so that the interaction of the ruthenium complex with apo- and holoenzyme was allowed to be rapid and followed by a slow irreversible association of a second ruthenium complex molecule. However, the affinity of the Ru complexes for the apoenzymes was much lower so this part was excluded from the proposed kinetic model for clarity (Figure 4).
(§5) FIGURE 4 Reaction scheme for the oxidation of 1-acenaphtenol by AKR1C1-3 and its inhibition by ruthenium compounds. E represents apoenzyme, E-NAD and E-NADH represent holoenzyme with bound NAD^+ and NADH, respectively. A and B are enantiomers of substrate 1-acenaphtenol. Symbols which include I (ruthenium compound) represent holoenzyme in complex with one or two inhibitor molecules. KNAD, KNADH, and K2-3 are equilibrium constants and k+2–3 are second-order association rate constants for the binding of the second inhibitor molecule to the enzyme. The progress curves for each enzyme in the presence of ruthenium complexes were analyzed by the WEB server ENZO (https://enzo.cmm.ki.si/) designed exactly for such purposes ([Bevc et al., 2011]).

AKR1C2 [3] = target: T3, AKR1C2 (Homo sapiens, UniProt P52895); assay: Inhibition of recombinant AKR1C2, oxidation of 1-acenaphthenol, progress-curve analysis; type: biochemical; settings: AKR1C2
T3 construct: made in house
T3 sequence (P52895 1-323): T2 sequence (Q04828 1-323) with T38V, R47H, L54V, C87S, V151M, R170H, Q172L
Procedure: as §4, §5

AKR1C3 [4] = target: T1, AKR1C3; assay: Inhibition of recombinant AKR1C3, oxidation of 1-acenaphthenol, progress-curve analysis; type: biochemical; settings: AKR1C3
Procedure: as §4, §5

HIO80 cells = assay: Cell proliferation assay (alamarBlue), control cell line HIO80; type: cell-based, human; settings: 48 h incubation
Procedure: as §1, §2, §3

OVCAR-4 cells = assay: Cell proliferation assay (alamarBlue), OVCAR-4; type: cell-based, human; settings: OVCAR-4; 48 h incubation
Procedure: as §1, §2, §3

COV362 cells [5] = assay: Cell migration assay (Ibidi culture inserts), COV362; type: cell-based, human; settings: 100 μM, 24 and 48 h
Procedure: Cell migration assay was performed using Ibidi® three-well culture inserts. The inserts were placed in six-well plates. In total, 70 µL of cell suspension was seeded in the inserts and allowed to adhere and grow for 24 h. When the cells formed a confluent monolayer, the inserts were carefully removed and the cells were washed two times with DPBS. Cells were treated with 100 μM (final concentration) of compounds 8, 9, cisplatin, and carboplatin in 2 ml of growth medium. Cells treated with a medium containing the same volume of sterile water or DMSO were used as the controls. Images of cell gaps were taken with Axio Scope A1 Polarized Light Microscope (Zeiss) at the time of treatment, 24 and 48 h after, and analyzed using ImageJ software.

AKR1C3 [6] = target: T1, AKR1C3; design: method as in Traven et al., 2015; settings: ref Traven et al., 2015; cited from earlier work
AKR1C2 [7] = target: T3, AKR1C2; design: method as in Bauman et al., 2005; settings: ref Bauman et al., 2005; cited from earlier work
[8] = irreversible binding of second inhibitor molecule to E-NAD-I
[9] = reversible binding to holoenzyme E-NAD, read-out: K2

## Cc1ccc(C(C)C)cc1.[Cl][Ru]([Cl])[PH]12CN3CN(CN(C3)C1)C2 [RAPTA-C, reference compound]
COV362 cells [1]
  IC50: > 300 µM

## CC1(C)CC[C@@]2(CC[C@H]3[C@@H]4CCc5cc(C(N)=O)ccc5[C@H]4CC[C@@]32C)OC1=O [EM1404]
AKR1C3 [2]
  Ki: 0.0069 µM

## [O-][n+]1ccccc1S [pyrithione]
MCF-7
  IC50 values (in words): low µM

## CN(C)c1ccc(C(=O)C=C([O][Ru+][PH]23CN4CN(CN(C4)C2)C3)C(F)(F)F)cc1.Cc1ccc(C(C)C)cc1.F[P-](F)(F)(F)(F)F [Compound 4, (η^6-p-cymene)(4,4,4-trifluoro-1-(4-(dimethylamino)phenyl)-1,3-butandionato)(pta)ruthenium(II) hexafluorophosphate]
AKR1C1; [8]
  k+2: 1.4 M⁻¹ s⁻¹
AKR1C1; [9]
  Ki: 86.9 µM
AKR1C2 [3]; [8]
  k+2: 1.9 M⁻¹ s⁻¹
AKR1C2 [3]; [9]
  Ki: 340 µM
AKR1C3 [4]; [8]
  k+2: 1.8 M⁻¹ s⁻¹
AKR1C3 [4]; [9]
  Ki: 441 µM

## O=[N+]([O-])c1ccc(O)c2ncccc12 [Nitroxoline, reference compound]
COV362 cells [1]
  fold lower IC50 compared to Ru-chlorido complex 9: 4 fold
COV362 cells [1]; Homo sapiens
  IC50: 6.6 µM

## N.N.O=C([O-])C1(C(=O)[O-])CCC1.[Pt+2] [Carboplatin, reference compound]
HIO80 cells
  IC50: 131 µM
COV362 cells [1]
  IC50: 272 µM
OVCAR-4 cells
  IC50: 73 µM
COV362 cells [5]
  effect on cell migration (in words): Significant cell migration was observed

## N.N.[Cl][Pt][Cl] [Cisplatin, reference compound]
HIO80 cells
  IC50: 6.96 µM
COV362 cells [1]
  IC50: 13.6 µM
OVCAR-4 cells
  IC50: 4.16 µM

## Cc1ccc(C(C)C)cc1.Cc1ccc(C(C)C)cc1.[Cl][Ru][Cl].[Cl][Ru][Cl] [Compound P1, [(η^6-p-cymene)RuCl(μ-Cl)]2]
AKR1C3 [6]
  Ki values (in words): nM Ki values

## C[C@H](CCC(=O)O)[C@H]1CC[C@H]2[C@@H]3CC[C@@H]4CC(=O)CC[C@]4(C)[C@H]3CC[C@]12C [5β-cholanic acid-3-one]
AKR1C2 [7]
  Ki: 0.021 µM

## Oc1c(I)cc(Cl)c2cccnc12 [Clioquinol, reference compound]
COV362 cells [1]
  fold lower IC50 value compared to Ru-pta complex 8: 1.9 fold
COV362 cells [1]; Homo sapiens
  IC50: 20.1 µM
